Experimental data reported in patent US20230295119A1, “SUBSTITUTED PYRIDINES FOR THE TREATMENT OF INFLAMMATORY DISEASES” (GOSSAMER BIO SERVICES, INC., priority 2020, published 2023).

Columns and labels:
[1] = molecular target: human JAK2 (Homo sapiens (Human), UniProt O60674); assay: JAK2 TR-FRET kinase assay; assay type: biochemical; details: JAK2 0.025 nM
[2] = molecular target: TYK2 JH2 domain (Homo sapiens (Human), UniProt P29597); assay: TYK2 JH2 NanoBRET assay; assay type: binding; details: Table 20, read-out: TYK2 IC50
Chain of TYK2 JH2 domain (P29597 589-875): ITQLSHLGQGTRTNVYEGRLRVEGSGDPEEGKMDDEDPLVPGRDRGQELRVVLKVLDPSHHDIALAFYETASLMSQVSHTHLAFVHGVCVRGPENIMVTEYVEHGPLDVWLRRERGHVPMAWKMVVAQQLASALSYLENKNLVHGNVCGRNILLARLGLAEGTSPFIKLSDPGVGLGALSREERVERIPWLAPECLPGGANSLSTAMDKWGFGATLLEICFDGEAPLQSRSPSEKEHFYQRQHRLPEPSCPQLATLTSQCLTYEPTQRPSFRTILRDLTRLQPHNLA
Procedure: HEK293T cells were transfected with NanoLuc-TYK2 JH2 Fusion Vector (Promega, customized) using Trans-IT reagent (Mirus, #MIR2700) and incubated for overnight in 37° C. incubator. […] Add 85 µL of cell suspension into white, polypropylene, 96-well plates (Corning, #3600). 90 µL of cells were used for no tracer control samples. 5 µL of diluted NanoBRET K10 tracer (Promega, #CS1810C122) were added to cells to a final concentration of 0.5 µM. Test compounds were diluted into DMSO, and then phenol-free opti-MEM to 10X of final concentration. 10 µL of diluted compounds were added into each well. The cells were incubated with test compound and tracer for 2 hours. 3XNanoBRET® Nano-Glo® Substrate and Extracellular NanoLuc® Inhibitor mixture were prepared and 50 µL of the mixture were added into the wells and mixed. […] NanoBRET signal was determined by using the ratio of acceptor signal and donor signal.

[3] = molecular target: human JAK3 (Homo sapiens (Human), UniProt P52333); assay: JAK3 TR-FRET kinase assay; assay type: biochemical; details: JAK3 0.0125 nM
Chain of human JAK3 (P52333 whole entry): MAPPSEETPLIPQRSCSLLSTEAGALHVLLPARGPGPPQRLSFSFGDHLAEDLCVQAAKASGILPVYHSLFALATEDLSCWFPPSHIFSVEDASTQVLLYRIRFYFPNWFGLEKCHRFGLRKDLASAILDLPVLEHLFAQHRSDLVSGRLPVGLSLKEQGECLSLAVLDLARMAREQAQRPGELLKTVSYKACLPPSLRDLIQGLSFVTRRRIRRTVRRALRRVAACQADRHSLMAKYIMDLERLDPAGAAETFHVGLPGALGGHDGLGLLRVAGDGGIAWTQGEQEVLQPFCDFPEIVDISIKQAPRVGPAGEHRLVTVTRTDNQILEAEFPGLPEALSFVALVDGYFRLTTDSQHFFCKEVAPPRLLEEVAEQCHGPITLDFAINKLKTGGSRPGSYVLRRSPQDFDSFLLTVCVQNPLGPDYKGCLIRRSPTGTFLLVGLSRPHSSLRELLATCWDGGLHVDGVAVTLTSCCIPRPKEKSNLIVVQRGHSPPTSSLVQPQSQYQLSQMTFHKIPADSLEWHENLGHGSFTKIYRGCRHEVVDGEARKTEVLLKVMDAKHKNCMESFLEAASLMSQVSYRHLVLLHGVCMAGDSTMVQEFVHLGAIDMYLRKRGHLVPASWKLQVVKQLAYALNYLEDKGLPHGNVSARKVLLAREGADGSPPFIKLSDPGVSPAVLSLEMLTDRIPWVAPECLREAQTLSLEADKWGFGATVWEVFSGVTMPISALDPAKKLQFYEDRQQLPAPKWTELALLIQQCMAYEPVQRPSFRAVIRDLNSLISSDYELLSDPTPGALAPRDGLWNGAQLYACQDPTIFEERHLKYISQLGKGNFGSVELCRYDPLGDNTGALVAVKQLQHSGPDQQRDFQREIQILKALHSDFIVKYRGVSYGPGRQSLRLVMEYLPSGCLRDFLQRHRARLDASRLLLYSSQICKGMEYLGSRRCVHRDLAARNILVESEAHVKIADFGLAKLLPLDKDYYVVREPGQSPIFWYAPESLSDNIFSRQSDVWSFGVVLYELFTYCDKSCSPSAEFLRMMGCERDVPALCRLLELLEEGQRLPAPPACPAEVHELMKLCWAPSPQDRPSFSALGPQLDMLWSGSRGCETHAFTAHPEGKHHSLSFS

[4] = molecular target: human JAK1 (Homo sapiens (Human), UniProt P23458); assay: JAK1 TR-FRET kinase assay; assay type: biochemical; details: TR-FRET, JAK1 2.5 nM
Chain of human JAK1 (P23458 whole entry): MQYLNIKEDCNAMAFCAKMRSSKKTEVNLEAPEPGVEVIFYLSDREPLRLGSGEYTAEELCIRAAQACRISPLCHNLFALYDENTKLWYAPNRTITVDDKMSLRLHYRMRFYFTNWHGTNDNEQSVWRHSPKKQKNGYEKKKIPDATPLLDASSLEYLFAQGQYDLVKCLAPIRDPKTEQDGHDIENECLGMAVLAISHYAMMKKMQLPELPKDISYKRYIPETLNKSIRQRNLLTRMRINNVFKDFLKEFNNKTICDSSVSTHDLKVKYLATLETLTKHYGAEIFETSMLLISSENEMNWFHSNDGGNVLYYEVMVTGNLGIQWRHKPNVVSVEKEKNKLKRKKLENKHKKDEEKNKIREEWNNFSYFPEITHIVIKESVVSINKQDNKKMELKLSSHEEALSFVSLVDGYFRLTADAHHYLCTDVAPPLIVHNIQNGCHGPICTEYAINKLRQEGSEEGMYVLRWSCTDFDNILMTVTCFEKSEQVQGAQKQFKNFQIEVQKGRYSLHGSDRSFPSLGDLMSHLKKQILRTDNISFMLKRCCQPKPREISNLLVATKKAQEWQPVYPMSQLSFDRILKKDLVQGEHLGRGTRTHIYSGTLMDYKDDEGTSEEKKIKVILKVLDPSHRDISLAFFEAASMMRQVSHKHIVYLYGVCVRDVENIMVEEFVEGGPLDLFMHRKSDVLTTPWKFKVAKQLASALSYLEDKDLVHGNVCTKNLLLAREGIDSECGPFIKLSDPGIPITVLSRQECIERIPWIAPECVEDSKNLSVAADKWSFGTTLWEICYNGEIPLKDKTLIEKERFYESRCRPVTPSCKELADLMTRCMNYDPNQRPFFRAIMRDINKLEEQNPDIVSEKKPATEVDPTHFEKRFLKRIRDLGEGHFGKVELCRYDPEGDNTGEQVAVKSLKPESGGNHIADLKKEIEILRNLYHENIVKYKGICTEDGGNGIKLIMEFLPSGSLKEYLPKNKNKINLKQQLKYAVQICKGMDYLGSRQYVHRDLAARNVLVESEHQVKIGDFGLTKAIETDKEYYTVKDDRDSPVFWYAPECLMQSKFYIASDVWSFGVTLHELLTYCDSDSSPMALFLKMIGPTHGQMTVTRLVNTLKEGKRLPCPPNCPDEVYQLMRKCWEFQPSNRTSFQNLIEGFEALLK

Chain of human JAK2 (O60674 whole entry, the tested form may be a part): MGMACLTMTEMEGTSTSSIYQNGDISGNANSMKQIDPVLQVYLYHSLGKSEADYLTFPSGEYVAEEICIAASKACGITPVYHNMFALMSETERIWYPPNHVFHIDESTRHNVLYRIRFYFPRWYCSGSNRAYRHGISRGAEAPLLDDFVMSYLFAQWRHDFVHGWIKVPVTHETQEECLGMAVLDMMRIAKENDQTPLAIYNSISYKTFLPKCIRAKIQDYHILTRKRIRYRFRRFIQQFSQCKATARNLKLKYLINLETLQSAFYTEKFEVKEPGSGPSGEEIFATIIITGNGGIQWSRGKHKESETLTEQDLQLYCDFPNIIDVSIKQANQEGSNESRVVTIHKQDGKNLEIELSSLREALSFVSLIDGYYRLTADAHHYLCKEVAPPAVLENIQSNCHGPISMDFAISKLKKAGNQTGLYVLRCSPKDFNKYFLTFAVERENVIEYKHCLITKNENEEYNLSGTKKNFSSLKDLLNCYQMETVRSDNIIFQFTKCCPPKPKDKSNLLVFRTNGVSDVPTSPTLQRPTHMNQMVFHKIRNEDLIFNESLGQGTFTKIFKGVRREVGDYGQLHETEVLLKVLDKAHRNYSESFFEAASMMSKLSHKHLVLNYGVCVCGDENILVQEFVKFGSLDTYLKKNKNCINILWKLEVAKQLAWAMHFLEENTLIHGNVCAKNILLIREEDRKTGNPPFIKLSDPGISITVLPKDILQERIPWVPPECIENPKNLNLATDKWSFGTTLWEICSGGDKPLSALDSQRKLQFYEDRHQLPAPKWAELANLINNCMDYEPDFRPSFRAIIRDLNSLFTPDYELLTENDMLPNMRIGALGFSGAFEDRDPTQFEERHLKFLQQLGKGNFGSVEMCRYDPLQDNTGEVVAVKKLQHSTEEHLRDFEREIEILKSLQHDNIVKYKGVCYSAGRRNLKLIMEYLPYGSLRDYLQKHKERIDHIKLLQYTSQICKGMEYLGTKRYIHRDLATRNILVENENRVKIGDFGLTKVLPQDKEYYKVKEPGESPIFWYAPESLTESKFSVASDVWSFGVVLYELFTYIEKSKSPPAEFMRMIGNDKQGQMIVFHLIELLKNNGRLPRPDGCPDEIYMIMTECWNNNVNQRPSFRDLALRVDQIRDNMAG

Structure (SMILES)	IC50 [1] [nM]	IC50 [2] [nM]	IC50 [3] [nM]	IC50 [4] [nM]
CCC(=O)c1cnc(Nc2cnc(OCCCO)cn2)cc1Nc1cccc(-c2ncn(C)n2)c1OC [Compound 18Q]	≥ 500	5 to 50	≥ 500	≥ 500
CCC(=O)c1cnc(Nc2ccc(S(=O)(=O)CC)cn2)cc1Nc1nccc(-c2ncn(C)n2)c1OC [Compound 13J]	≥ 500	< 5	≥ 500	≥ 500
CCC(=O)c1cnc(Nc2ccc([C@H](C)N(C)C)cn2)cc1Nc1cccc(-c2ncn(C)n2)c1OC [Compound 9K]	≥ 500	< 5	≥ 500	≥ 500
[2H]C([2H])([2H])N1CC[C@@H](Oc2cnc(Nc3cc(Nc4cccc(-c5ncn(C)n5)c4OC)c(C(=O)CC)cn3)cn2)C1 [Compound 18NNN]	≥ 500	5 to 50	≥ 500	≥ 500
CCC(=O)c1cnc(Nc2ccc(-c3cn(C)cn3)cn2)cc1Nc1nccc(-c2ncn(C)n2)c1OC [Compound 15J]	≥ 500	< 5	≥ 500	≥ 500
CCC(=O)c1cnc(Nc2cc(C(N)=O)ncn2)cc1Nc1cccc(-c2ncn(C)n2)c1OC [Compound 8M]	≥ 500	< 5	≥ 500	≥ 500
CCC(=O)c1cnc(Nc2cc(C)n([C@H]3C[C@@H](OC)C3)n2)cc1Nc1cccc(-c2ncn(C)n2)c1OC [Compound 21EE]	≥ 500	< 5	≥ 500	≥ 500
CCC(=O)c1cnc(Nc2ccc(OCCO)nn2)cc1Nc1cccc(-c2ncn(C)n2)c1OC [Compound 18M]	≥ 500	< 5	≥ 500	≥ 500
CCC(=O)c1cnc(NC2=NN(C(=O)C3CC3)CC2)cc1Nc1cccc(-c2ncn(C)n2)c1OC [Compound 26A, 1-(6-((1-(cyclopropanecarbonyl)-4,5-dihydro-1H-pyrazol-3-yl)amino)-4-((2-methoxy-3-(1-methyl-1H-1,2,4-triazol-3-yl)phenyl)amino)pyridin-3-yl)propan-1-one]	≥ 500	5 to 50	≥ 500	≥ 500
CCC(=O)c1cnc(Nc2ccc(CN)cn2)cc1Nc1cccc(-c2ncn(C)n2)c1OC [Compound 9B]	≥ 500	< 5	≥ 500	≥ 500
CCC(=O)c1cnc(Nc2ccc(OCCN3CCCC3)cn2)cc1Nc1cccc(-c2ncn(C)n2)c1OC [Compound 10A, 1-(4-((2-methoxy-3-(1-methyl-1H-1,2,4-triazol-3-yl)phenyl)amino)-6-((5-(2-(pyrrolidin-1-yl)ethoxy)pyridin-2-yl)amino)pyridin-3-yl)propan-1-one]	≥ 500	< 5	≥ 500	≥ 500
CCC(=O)c1cnc(Nc2cnc(OCCN3CC[C@H](F)C3)cn2)cc1Nc1cccc(-c2ncn(C)n2)c1OC [Compound 18XX]	≥ 500	5 to 50	≥ 500	≥ 500
CCC(=O)c1cnc(Nc2ccc(C(C)N)cn2)cc1Nc1cccc(-c2ncn(C)n2)c1OC (centres unmarked) [Compound 9G]	≥ 500	< 5	≥ 500	≥ 500
CCC(=O)c1cnc(Nc2cc(C)n(CCOC)n2)cc1Nc1cccc(-c2ncn(C)n2)c1OC [Compound 21Z]	≥ 500	5 to 50	50 to 500	≥ 500
CCC(=O)c1cnc(Nc2cnc(O[C@H]3CN(C)C[C@H]3F)cn2)cc1Nc1cccc(-c2ncn(C)n2)c1OC [Compound 18BBB]	≥ 500	5 to 50	≥ 500	≥ 500
CCC(=O)c1cnc(Nc2ccc(C3(NC)CC3)cn2)cc1Nc1cccc(-c2ncn(C)n2)c1OC [Compound 9P]	≥ 500	< 5	≥ 500	≥ 500

Structure (SMILES)	IC50 [1] [nM]	IC50 [2] [nM]	IC50 [3] [nM]	IC50 [4] [nM]
CCC(=O)c1cnc(Nc2ccc(S(=O)(=O)NC)cn2)cc1Nc1cccc(-c2ncn(C)n2)c1OC [Compound 13C]	≥ 500	5 to 50	≥ 500	≥ 500
CCC(=O)c1cnc(Nc2cnc(OCCN3CCC(F)(F)C3)cn2)cc1Nc1cccc(-c2ncn(C)n2)c1OC [Compound 18ZZ]	≥ 500	5 to 50	≥ 500	≥ 500
CCC(=O)c1cnc(Nc2cnc(OC3CCN(C)CC3)cn2)cc1Nc1cccc(-c2ncn(C)n2)c1OC [Compound 18EEE]	≥ 500	< 5	≥ 500	≥ 500
CCC(=O)c1cnc(Nc2cc(CN3CCCCC3)ccn2)cc1Nc1cccc(-c2ncn(C)n2)c1OC [Compound 9JJJJ]	≥ 500	< 5	50 to 500	≥ 500
CCC(=O)c1cnc(Nc2ccn([C@H]3C[C@@H](O)C3)n2)cc1Nc1cccc(-c2ncn(C)n2)c1OC [Compound 21J]	≥ 500	5 to 50	≥ 500	≥ 500
CCC(=O)c1cnc(Nc2ccn(CCC#N)n2)cc1Nc1cccc(-c2ncn(C)n2)c1OC [Compound 21M]	≥ 500	5 to 50	50 to 500	≥ 500
CCC(=O)c1cnc(Nc2ccc(CN3CCS(=N)(=O)CC3)cn2)cc1Nc1cccc(-c2ncn(C)n2)c1OC [Compound 9WW]	50 to 500	5 to 50	50 to 500	≥ 500
CCC(=O)c1cnc(Nc2ccc(OC(CO)CO)cn2)cc1Nc1cccc(-c2ncn(C)n2)c1OC [Compound 18H]	≥ 500	5 to 50	≥ 500	≥ 500
CCC(=O)c1cnc(Nc2cccc(CN3CCCC3)n2)cc1Nc1cccc(-c2ncn(C)n2)c1OC [Compound 9FFFF]	≥ 500	5 to 50	≥ 500	≥ 500
CCC(=O)c1cnc(Nc2cnc(O[C@H]3CCCN(C)C3)cn2)cc1Nc1cccc(-c2ncn(C)n2)c1OC [Compound 18QQQ]	≥ 500	5 to 50	≥ 500	≥ 500
CCC(=O)c1cnc(Nc2ncc(CS(C)(=O)=O)cc2F)cc1Nc1cccc(-c2ncn(C)n2)c1OC [Compound 13AA]	≥ 500	5 to 50	≥ 500	≥ 500
CCC(=O)c1cnc(Nc2ccc(S(C)(=N)=O)cn2)cc1Nc1nccc(-c2ncn(C)n2)c1OC (centres unmarked) [Compound 13L]	≥ 500	≥ 500	≥ 500	≥ 500
CCC(=O)c1cnc(Nc2cc(C(C)N(C)C)ncn2)cc1Nc1cccc(-c2ncn(C)n2)c1OC (centres unmarked) [Compound 9QQQQ]	≥ 500	< 5	≥ 500	≥ 500
CCC(=O)c1cnc(Nc2ccc(S(C)(=O)=O)cn2)cc1Nc1nccc(-c2ncn(C)n2)c1OC [Compound 13I]	≥ 500	< 5	≥ 500	≥ 500
CCC(=O)c1cnc(Nc2cnc(C(F)(F)CN3CCCC3)cn2)cc1Nc1cccc(-c2ncn(C)n2)c1OC [Compound 19E]	≥ 500	5 to 50	≥ 500	≥ 500
CCC(=O)c1cnc(Nc2ccc(CN)nn2)cc1Nc1cccc(-c2ncn(C)n2)c1OC [Compound 9FFF]	≥ 500	50 to 500	≥ 500	≥ 500
